Assay results: patent US20250346585A1 (Alexion Pharmaceuticals, Inc., priority 2022, published 2025)

These compounds were tested against Human complement C1s enzyme (Homo sapiens (Human), UniProt P09871) (assay: Human C1s enzyme assay). Conditions: Human C1s enzyme assay of Example 3; read-out: IC50 (Stars).
Assay type: biochemical
How it was run: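 Purified serum-derived human C1s (1.16 nM final) preincubated 5 min at room temperature with compound in 50 mM Tris, 1 M NaCl, pH 7.5. Z-L-Lys-SBzl thioester substrate and DTNB added (100 μM each, final); A405 read every 30 s for 30 min. IC50 from nonlinear regression of reaction rates against compound concentration.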

Sequence of Human complement C1s enzyme (P09871 438-688 limits assumed): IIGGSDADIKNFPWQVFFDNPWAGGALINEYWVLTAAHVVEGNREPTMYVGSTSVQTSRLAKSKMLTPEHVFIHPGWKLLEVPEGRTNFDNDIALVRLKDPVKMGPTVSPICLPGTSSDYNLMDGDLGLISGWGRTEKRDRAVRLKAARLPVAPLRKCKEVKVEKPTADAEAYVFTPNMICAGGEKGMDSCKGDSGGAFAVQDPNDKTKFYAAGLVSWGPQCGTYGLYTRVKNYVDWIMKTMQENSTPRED
Sequence of Human complement C1s enzyme (P09871 16-437 partner limits assumed): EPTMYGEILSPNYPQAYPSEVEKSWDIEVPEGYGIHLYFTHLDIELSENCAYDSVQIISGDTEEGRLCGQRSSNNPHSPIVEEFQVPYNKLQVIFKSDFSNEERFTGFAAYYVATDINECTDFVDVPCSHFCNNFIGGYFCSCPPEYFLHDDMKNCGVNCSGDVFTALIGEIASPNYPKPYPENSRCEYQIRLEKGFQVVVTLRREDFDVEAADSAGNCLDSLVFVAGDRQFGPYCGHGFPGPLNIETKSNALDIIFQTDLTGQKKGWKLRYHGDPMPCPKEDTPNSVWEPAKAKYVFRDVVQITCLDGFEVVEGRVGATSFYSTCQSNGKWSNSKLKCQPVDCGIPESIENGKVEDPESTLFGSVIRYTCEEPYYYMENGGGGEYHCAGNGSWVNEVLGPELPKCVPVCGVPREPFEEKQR

Question: `C[C@@H](NC(=O)[C@@H]1C[C@](F)(CF)CN1C(=O)CNC(=O)c1ccc(C(F)(F)c2ccccc2)cc1)c1cc(C(=N)N)cs1` [Compound 154, (2S,4R)—N—((R)-1-(4-carbamimidoylthiophen-2-yl)ethyl)-1-((4-(difluoro(phenyl)methyl)benzoyl)glycyl)-4-fluoro-4-(fluoromethyl)pyrrolidine-2-carboxamide] was tested. Which IC50 did it give?
Answer: < 100 nM

Question: Which IC50 does the source give for `N=C(N)c1csc(CNC(=O)[C@@H]2CC3(CN2C(=O)CNC(=O)c2ccc(-c4ccc(F)cc4)cc2)OCCO3)c1` [Compound 73, (S)—N-((4-carbamimidoylthiophen-2-yl)methyl)-7-((4′-fluoro-[1,1′-biphenyl]-4-carbonyl)glycyl)-1,4-dioxa-7-azaspiro[4.4]nonane-8-carboxamide] here?
Answer: < 100 nM

Question: Which IC50 does the source give for `C[C@@H](NC(=O)[C@@H]1C[C@]2(C)C[C@@H]2N1C(=O)CNC(=O)c1ccc(Oc2ccc(F)cc2)cc1)c1cc(C(=N)N)cs1` [Compound 16, (1S,3S,5S)—N-[(1R)-1-(4-carbamimidoylthiophen-2-yl)ethyl]-2-(2-{[4-(4-fluorophenoxy)phenyl]formamido}acetyl)-5-methyl-2-azabicyclo[3.1.0]hexane-3-carboxamide] here?
Answer: < 100 nM

Question: `C[C@@H](NC(=O)[C@@H]1CC2(CN1C(=O)CNC(=O)c1ccc(Oc3ccc(F)cc3)cc1)OCCO2)c1cc(C(=N)N)cs1` [Compound 23, (S)—N—((R)-1-(4-carbamimidoylthiophen-2-yl)ethyl)-7-((4-(4-fluorophenoxy)benzoyl)glycyl)-1,4-dioxa-7-azaspiro[4.4]nonane-8-carboxamide] was tested. Which IC50 did it give?
Answer: < 100 nM

Question: With `C[C@@H](NC(=O)[C@@H]1C[C@@H](C2OCCCO2)CN1C(=O)CNC(=O)c1ccc(Oc2ccc(F)cc2)cc1)c1cc(C(=N)N)cs1` (relative stereo) [Compound 160, (2S,4R*)—N—((R)-1-(4-carbamimidoylthiophen-2-yl)ethyl)-4-(1,3-dioxan-2-yl)-1-((4-(4-fluorophenoxy)benzoyl)glycyl)pyrrolidine-2-carboxamide] as the compound, how does the IC50 read?
Answer: < 100 nM

Question: `C[C@@H](NC(=O)[C@@H]1CC2(CN1C(=O)CNC(=O)c1ccc(C(F)(F)c3ccccc3)cc1)OCCO2)c1cc(C(=N)N)cs1` [Compound 82, (S)—N—((R)-1-(4-carbamimidoylthiophen-2-yl)ethyl)-7-((4-(difluoro(phenyl)methyl)benzoyl)glycyl)-1,4-dioxa-7-azaspiro[4.4]nonane-8-carboxamide] was tested. Which IC50 did it give?
Answer: < 100 nM

Question: How did the IC50 turn out when `C[C@@H](NC(=O)[C@@H]1CC2(CN1C(=O)CNC(=O)c1ccc3c(c1)-c1ccccc1C3(F)F)OCCO2)c1cc(-c2cn[nH]n2)cs1` [Compound 152, (S)—N—((R)-1-(4-(2H-1,2,3-triazol-4-yl)thiophen-2-yl)ethyl)-7-((9,9-difluoro-9H-fluorene-3-carbonyl)glycyl)-1,4-dioxa-7-azaspiro[4.4]nonane-8-carboxamide] was run?
Answer: > 1000 nM

Same assay, conditions: Human complement C1s enzyme 1.16 nM, substrate Z-L-Lys-SBzl 100 μM, assay of Example 3; read-out: IC50 (Stars)

Question: `COC[C@@]1(F)C[C@@H](C(=O)N[C@H](C)c2cc(C(=N)N)cs2)N(C(=O)CNC(=O)c2cccc(-c3ccc(F)cc3)c2)C1` [Compound 364, (2S,4R)—N—((R)-1-(4-carbamimidoylthiophen-2-yl)ethyl)-4-fluoro-1-((4′-fluoro-[1,1′-biphenyl]-3-carbonyl)glycyl)-4-(methoxymethyl)pyrrolidine-2-carboxamide] was tested. Which IC50 did it give?
Answer: < 100 nM

Question: How did the IC50 turn out when `C[C@@H](NC(=O)[C@@H]1C[C@@H](OC(F)F)CN1C(=O)CNC(=O)c1ccc2c(c1)-c1ccccc1S2(=O)=O)c1cc(C(=N)N)cs1` [Compound 337, (2S,4R)—N—((R)-1-(4-carbamimidoylthiophen-2-yl)ethyl)-4-(difluoromethoxy)-1-((5,5-dioxidodibenzo[b,d]thiophene-2-carbonyl)glycyl) pyrrolidine-2-carboxamide] was run?
Answer: < 100 nM

Question: With `CO[C@@H]1C[C@@H](C(=O)NCc2cc(NC(=O)CNC(=O)c3ccc(Oc4ccc(F)cc4)cc3)cs2)N(C(=O)CNC(=O)c2ccc(Oc3ccc(F)cc3)cc2)C1` [Compound 243, (2S,4R)-N-((4-(2-(4-(4-fluorophenoxy)benzamido)acetamido)thiophen-2-yl)methyl)-1-((4-(4-fluorophenoxy)benzoyl)glycyl)-4-methoxypyrrolidine-2-carboxamide] as the compound, how does the IC50 read?
Answer: > 1000 nM

Question: `CCCCCCOC(=O)/N=C(/N)c1csc([C@@H](C)NC(=O)[C@@H]2C[C@](F)(COC)CN2C(=O)CNC(=O)c2ccc3c(c2)-c2ccccc2C3(F)F)c1` [Compound 249, hexyl ((E)-amino(5-((R)-1-((2S,4R)-1-((9,9-difluoro-9H-fluorene-3-carbonyl)glycyl)-4-fluoro-4-(methoxymethyl)pyrrolidine-2-carboxamido)ethyl)thiophen-3-yl)methylene)carbamate] was tested. Which IC50 did it give?
Answer: < 100 nM
